Source: PMC4336144, “Screening the Medicines for Malaria Venture "Malaria Box" against the Plasmodium falciparum Aminopeptidases, M1, M17 and M18” (PLoS ONE, 2015)
pKi: −log10 of the molar value.

What was measured:
PfA-M1 [1] = target: T1, PfA-M1 (Plasmodium falciparum, UniProt O96935); assay: Determination of Ki values (Dixon plots, H-Leu-NHMec); assay type: biochemical; details: for pKi / Ki PfA-M1: Dixon plot; for pKi: read-out: Ki PfA-M1
T1 construct: made in house; host or cells: Escherichia coli
T1 sequence (O96935 195-1085 limits assumed): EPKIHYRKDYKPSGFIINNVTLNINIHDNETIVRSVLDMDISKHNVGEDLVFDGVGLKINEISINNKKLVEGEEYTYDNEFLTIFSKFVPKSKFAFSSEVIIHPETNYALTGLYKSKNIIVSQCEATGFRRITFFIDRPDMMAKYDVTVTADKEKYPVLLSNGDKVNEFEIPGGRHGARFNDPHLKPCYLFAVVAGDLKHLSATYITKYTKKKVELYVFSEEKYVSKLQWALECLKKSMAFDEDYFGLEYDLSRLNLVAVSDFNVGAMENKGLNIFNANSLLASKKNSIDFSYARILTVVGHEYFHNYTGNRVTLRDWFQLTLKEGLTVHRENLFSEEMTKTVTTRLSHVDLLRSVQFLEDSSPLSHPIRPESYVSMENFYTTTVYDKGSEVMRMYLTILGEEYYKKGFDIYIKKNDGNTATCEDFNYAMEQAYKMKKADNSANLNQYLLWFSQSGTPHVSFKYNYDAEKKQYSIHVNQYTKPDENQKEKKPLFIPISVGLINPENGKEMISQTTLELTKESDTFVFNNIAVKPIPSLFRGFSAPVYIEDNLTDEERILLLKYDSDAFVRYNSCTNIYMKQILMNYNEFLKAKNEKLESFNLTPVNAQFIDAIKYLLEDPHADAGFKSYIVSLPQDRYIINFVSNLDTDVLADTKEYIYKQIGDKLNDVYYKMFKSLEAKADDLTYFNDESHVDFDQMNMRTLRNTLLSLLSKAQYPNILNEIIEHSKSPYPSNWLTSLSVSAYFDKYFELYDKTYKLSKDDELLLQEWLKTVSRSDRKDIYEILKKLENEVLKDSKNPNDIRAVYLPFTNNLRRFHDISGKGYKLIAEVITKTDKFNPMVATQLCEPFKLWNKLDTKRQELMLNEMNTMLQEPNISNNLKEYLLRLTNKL
Description: (§1) MMV020750 was purchased from InterBioScreen (catalog number STOCK2S-51608) and MMV666023 was purchased from ChemBridge (catalog number 5566248). The MMV020750 derivatives 1, 2 and 3 were purchased from Ambinter (catalog numbers AMB425981, AMB2311364 and AMB8506251 respectively). 4-(4,5-Diphenyl-1H-imidazol-2-yl)benzoic acid (4) was purchased from TCI Chemicals, while 4-(4,5-diphenyl-1H-imidazol-2-yl)-N-hydroxybenzamide (5) was prepared from 4 as described (S1 Methods). Aminopeptidase activity of both PfA-M1 and PfA-M17 enzymes was determined by measuring the release of the fluorogenic leaving group, NHMec, from the fluorogenic peptide L-Leucine-7-amido-4-methylcoumarin hydrochloride (H-Leu-NHMec) (Sigma L2145). The assay protocol devised by Stack CM, et al, (J. Biol Chem, 2007) was modified and used, with the reactions were carried out at 37°C and monitored using a spectrofluorometer (BMG FLUOstar) with excitation at 355 nm and emission at 460 nm. Each enzyme was pre-incubated in 50 mM Tris pH 8.0, 2 mM CoCl2; 5% DMSO with each inhibitor for 10 min prior to the addition of substrate. Inhibitor concentration was assayed between 0 and 500 μM final for each compound, and repeated over a narrowed range if necessary. The fluorescence signal was monitored until a final steady state velocity, V, was obtained. The K i values were then evaluated using Dixon plots of 1/V versus inhibitor concentration while the substrate concentration was maintained lower than that of the Km of the enzyme.

PfA-M17 = target: T2, PfA-M17 (Plasmodium falciparum, UniProt Q8IL11); assay: as above; assay type: biochemical; details: for loss in inhibitory activity against PfA-M17: compared to parent MMV020750
T2 construct: made in house; host or cells: Escherichia coli
T2 sequence (Q8IL11 84-605 limits assumed): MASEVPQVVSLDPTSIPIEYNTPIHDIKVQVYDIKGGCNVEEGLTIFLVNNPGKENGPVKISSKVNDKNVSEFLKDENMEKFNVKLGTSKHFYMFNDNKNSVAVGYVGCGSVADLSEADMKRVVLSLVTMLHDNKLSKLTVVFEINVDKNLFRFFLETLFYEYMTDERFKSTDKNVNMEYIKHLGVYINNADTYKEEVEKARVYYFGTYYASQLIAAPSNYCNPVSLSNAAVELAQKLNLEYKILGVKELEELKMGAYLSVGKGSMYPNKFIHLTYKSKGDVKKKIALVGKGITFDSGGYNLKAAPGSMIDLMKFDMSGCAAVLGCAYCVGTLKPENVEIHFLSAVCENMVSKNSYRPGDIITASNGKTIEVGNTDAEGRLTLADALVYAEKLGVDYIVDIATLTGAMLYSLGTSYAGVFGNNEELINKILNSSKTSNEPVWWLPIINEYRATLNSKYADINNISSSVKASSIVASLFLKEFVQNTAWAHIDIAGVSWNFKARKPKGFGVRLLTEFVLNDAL
Description: as §1
This was a particular problem with the PfA-M17 enzyme assays where we noted that at higher concentrations of 4, a decrease in fluorescence was observed. We hypothesise that this is a result of PfA-M17 binding to the compound and quenching the intrinsic fluorescence. […] We therefore chose to analyse a reduced concentration range for 4.

PfA-M1 and/or PfA-M17 = assay: Multiplex primary screen, fluorogenic substrate Leu-Mec; assay type: biochemical, Plasmodium falciparum; details: 100 μM compound, multiplex assay
Description: A multiplex enzyme assay was developed to complete the primary screen of 400 compounds that were provided to us by MMV and SCYNEXIS. Combined PfMAP (15 nM PfA-M1; 80 nM PfA-M17 and 125 nM PfM18AAP) aminopeptidase activity in the presence of a single MMV compound (100 μM solubilized in 100% dimethyl sulfoxide, DMSO, final DMSO concentration in assay = 10%) was determined by simultaneous measurement of the release of the fluorogenic leaving group, -NHMec, from L-Leucine-7-amido-4-methylcoumarin-HCl (Leu-Mec) (Sigma) as well as the hydrolysis of p-nitroanilide from the chromogenic substrate, L-Glutamic acid p-nitroanilide (Glu-pNA) (Sigma). The fluorogenic substrate records the combined activity of PfA-M1 and PfA-M17 while the p-nitroanilide substrate is specific for PfM18AAP. Reactions were carried out in 96-well microtitre plates (200 μL total volume) in 50 mM Tris-HCl pH 8.0, 2 mM CoCl2 at 37°C. Following a 10 min incubation (multi-enzyme and single compound) at 37°C, reactions were initiated by addition of both fluorogenic and chromagenic substrates. Progress curves were monitored using a FLUOstar Omega multimode reader (BMG LabTech) for 1.5 h at 37°C. As activity references, individual enzyme and multiple enzyme 'no compound' controls and 'positive inhibitor' controls (with 10% DMSO) were included in each 96 well plate assay.

PfA-M1 [2] = target: T1, PfA-M1; assay: Secondary screening against individual enzyme; assay type: biochemical; details: 100 μM compound; for reduction of PfA-M1 activity: n = 3
Description: Aminopeptidase activity of each individual enzyme in the presence of a single MMV compound (100 μM) was determined using Leu-Mec for both PfA-M1 (15 nM) and PfA-M17 (80 nM) or Glu-pNA for PfM18AAP (125 nM). Reactions were carried out in 96-well microtitre plates (200 μl total volume) in 50 mM Tris-HCl pH 8.0, 2 mM CoCl2 at 37°C. Following a 10 min incubation (enzyme and compound) at 37°C, reactions were initiated by addition of enzyme specific substrate. Progress curves were monitored using a FLUOstar Omega multimode reader (BMG LabTech) for 1.5 h at 37°C. As activity references, individual enzyme 'no compound' controls and 'positive inhibitor' controls were included in each 96 well plate assay. We applied a cut-off of < 10% activity in the presence of 100 μM compound for selection to the next phase. Compounds that were selected to proceed were then used in further assays to obtain n = 3.

SMILES	Activity (PfA-M1 and/or PfA-M17) (PfA-M1 and/or PfA-M17)	other results
CN(CCO)c1ccc(-c2nc(-c3ccccc3)c(-c3ccccc3)[nH]2)cc1 [Compound 1]		pKi (PfA-M1 [1]): < 3.30; pKi (PfA-M17; Dixon plot): < 3.30
COc1cc(-c2nc(-c3ccccc3)c(-c3ccccc3)[nH]2)ccc1OCC(N)=O [Compound 2]		pKi (PfA-M1 [1]): < 3.30; pKi (PfA-M17; Dixon plot): < 3.30
COC(=O)c1ccc(-c2nc(-c3ccccc3)c(-c3ccccc3)[nH]2)cc1 [Compound 3]		Ki PfA-M1 (PfA-M1 [1]): micromolar range; pKi (PfA-M1 [1]): 3.92; pKi (PfA-M17; Dixon plot): 3.56; loss in inhibitory activity against PfA-M17 (PfA-M17): > 10 fold
O=C(O)c1ccc(-c2nc(-c3ccccc3)c(-c3ccccc3)[nH]2)cc1 [Compound 4, 4-(4,5-Diphenyl-1H-imidazol-2-yl)benzoic acid]		pKi (PfA-M1 [1]): 5.28; increase in potency against PfA-M1 (PfA-M1 [1]; compared to MMV020750): > 10 fold; pKi (PfA-M17; Dixon plot): 4.40 to 4.70; Ki PfA-M17 (PfA-M17; Dixon plot): micromolar range
O=C(NO)c1ccc(-c2nc(-c3ccccc3)c(-c3ccccc3)[nH]2)cc1 [Compound 5, 4-(4,5-diphenyl-1H-imidazol-2-yl)-N-hydroxybenzamide]		Ki PfA-M1 (PfA-M1 [1]): micromolar range; pKi (PfA-M1 [1]): 4.47; pKi (PfA-M17; Dixon plot): 3.73; loss in inhibitory activity against PfA-M17 (PfA-M17): > 10 fold
Cc1ccnc(NC(c2cccc(OCc3ccccc3)c2)c2ccc3cccnc3c2O)c1 (centres unmarked) [MMV000720]	R	
Oc1ccc(-c2nc(-c3ccc4oc5ccc(-c6[nH]c(-c7ccc(O)cc7)nc6-c6ccccc6)cc5c4c3)c(-c3ccccc3)[nH]2)cc1 [MMV000753]	R	
OCCNc1nc(Nc2ccc(Cl)c(Cl)c2)nc2ccccc12 [MMV001041]	R	
CN(C)c1ccc(C=Cc2nc(=O)c3ccccc3o2)cc1 [MMV006309]	R	
Cc1cccc(N2C(=O)C3C(C2=O)C2(c4ccccc4)C(=O)C3(c3ccccc3)C(c3ccc4c(c3)OCO4)=C2c2ccc3c(c2)OCO3)c1 (centres unmarked) [MMV007228]	R	reduction of PfA-M1 activity (PfA-M1 [2]): 89%
COc1cc(-c2nc(-c3ccc(Sc4ccccc4)cc3)c(-c3ccccc3)[nH]2)cc(OC)c1O [MMV007273]	R	PfA-M1 activity retained in the presence of compound (PfA-M1 [2]; n = 3, of total enzyme activity): ~75%
COc1ccc2c(c1)OC(O)(C(F)(F)C(F)(F)F)CC2=O (centres unmarked) [MMV007839]	R	
Nc1ccc(-c2nc3cc(Oc4ccc(Oc5ccc6[nH]c(-c7ccc(N)cc7)nc6c5)cc4)ccc3[nH]2)cc1 [MMV011895]	R	
O=C(Nc1ccc(-c2nc3cc4ccccc4cc3[nH]2)cc1)c1cccc(Br)c1 [MMV019241]	R	
COc1ccc(C=C2SC(Nc3ccc(F)cc3)=NC2=O)c(OC)c1 [MMV084434]	R	
COc1ccc(CCN2C(=O)c3[nH]nc(-c4cc(Cl)c(C)cc4O)c3C2c2ccccc2F)cc1 (centres unmarked) [MMV396717]	R	
O=C(NNc1cc(N2CCCC2)nc(N2CCCC2)n1)c1ccccc1 [MMV396770]	R	
Cc1cccc(-n2ncc3c(O)nc(-n4nc(C)cc4NC(=O)c4cc5ccccc5o4)nc32)c1 [MMV403679]	R	reduction of PfA-M1 activity (PfA-M1 [2]): 75%
Oc1c(C(Nc2ccccn2)c2cccc(Oc3ccccc3)c2)ccc2cccnc12 (centres unmarked) [MMV665814]	R	
CCOC(=O)c1c(NC(=O)c2ccccc2)sc2c(O)c(CN(CC)CC)ccc12 [MMV665831]	R	
COc1ccc(/C=C2/SC(=Nc3ccccc3)NC2=O)cc1 [MMV665836]	R	
Cc1ccc(-c2cc(C(=O)Nc3ccc(S(=O)(=O)N4CCCCC4)cc3)[nH]n2)c(O)c1 [MMV665906]	R	
COc1cccc(C(=O)NC(c2ccc(C)cc2)c2cc(Cl)c3cccnc3c2O)c1 (centres unmarked) [MMV665969]	R	
COc1ccc(C(=O)NC(c2ccccc2Cl)c2cc(Cl)c3cccnc3c2O)cc1 (centres unmarked) [MMV666022]	R	
COc1ccc(C(=O)NC(c2ccc(Cl)cc2Cl)c2cc(Cl)c3cccnc3c2O)cc1 (centres unmarked) [MMV666054]	R	reduction of PfA-M1 activity (PfA-M1 [2]): 87%
COc1ccc(C=C2SC(=N)N(c3ccccc3OC)C2=O)cc1 [MMV666691]	R	
